Test results as given in PubChem BioAssay (NCI).
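A five-concentration, 48-hour dose response in 96-well plates underlies each endpoint, interpolated linearly between surrounding concentrations. Here, GI50 denotes the concentration required for 50% inhibition of growth. TGI: total growth inhibition.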

What was measured:
Assay in all cases: NCI anticancer screen, dose series, 48 h
[1] = system: OVCAR-8 ovarian
[2] = system: MOLT-4 leukemia
[3] = system: HCT-15 colon
[4] = system: NCI/ADR-RES ovarian
[5] = system: U251 CNS
[6] = system: SW-620 colon
[7] = system: ACHN renal
[8] = system: NCI-H23 lung

Compound	GI50 [1] [µM]	TGI [1] [µM]	GI50 [2] [µM]	TGI [2] [µM]	GI50 [3] [µM]	TGI [3] [µM]	GI50 [4] [µM]	TGI [4] [µM]	GI50 [5] [µM]	TGI [5] [µM]	GI50 [6] [µM]	TGI [6] [µM]	GI50 [7] [µM]	TGI [7] [µM]	GI50 [8] [µM]	TGI [8] [µM]
O=S1(=O)N(Cc2ccccc2)[C@@H](Cc2ccccc2)[C@H](O)[C@H](O)[C@H](Cc2ccccc2)N1Cc1ccccc1	4.2	11.2	2.86	10.2	4.37	18.2	3.4	8.58	3.07	6.47	3.18	7.12	6.01	> 20	3.11	6.71
CN(Cc1ccc(C(F)(F)F)cc1)CC(O)C(=O)Nc1ccc(Cl)cc1 (stereo unspecified)	1.8	3.5	1.42	3.28	1.28	2.61	1.58	3.02	1.73	3.16	1.54	3.1	1.55	2.92	1.32	2.69
CN(C)CCNC(=O)c1ccc(-c2nc3ccc4[nH]ncc4c3c3c2C2CCC3C2)cc1 (stereo unspecified)	1.4	9.81	1.1	5.56	2.44	11.4	8.3	26.8	1.17	8.89	0.473	5.16	0.564	6.91	1.63	5.94
CC[C@@]1(OC(=O)CN)C(=O)OCc2c1cc1n(c2=O)Cc2c-1nc1cc3c(cc1c2CCl)OCO3	< 0.0105	0.354	< 0.01	–	0.372	10.2	< 0.01	0.0583	0.0185	> 42.9	< 0.0196	32.6	< 0.01	0.244	< 0.01	0.0885
Cc1cc(Cl)ccc1OCC(=O)Nc1nc(N)nc(N)n1	–	> 100	–	> 100	–	> 100	–	> 100	–	> 100	–	> 100	–	> 100	–	> 100
c1cc(-c2nnc(SSc3ncnc4nc[nH]c34)o2)ccn1	3.26	> 100	1.23	> 100	2.8	> 100	2.74	> 100	7.22	> 100	3.38	> 100	4.07	> 100	2.73	> 100
O=c1cc(-c2ccc(O)cc2)oc2cc(O[C@@H]3O[C@H](CO)[C@@H](O)[C@H](O)[C@H]3O)cc(O)c12	–	> 100	–	> 100	–	> 100	–	> 100	–	> 100	–	> 100	–	> 100	–	> 100
Cc1cc(C)c2c(n1)sc1c(N)ncnc12	> 25	> 25	> 25	> 25	> 25	> 25	> 25	> 25	> 25	> 25	> 25	> 25	14.2	> 25	> 25	> 25
Cn1cccc1-c1cc(-c2ccccc2)[nH]c(=O)c1C#N	> 100	> 100	18.9	45.4	> 100	> 100	> 100	> 100	> 100	> 100	> 100	> 100	> 100	> 100	> 100	> 100
O=C(Nc1ccc(-n2ccc3c(NC(=O)c4ccccc4)ncnc32)cc1)c1cccc(C(F)(F)F)c1	1.16	29.2	0.493	32.7	0.0643	24.8	2.67	37.4	0.146	13.7	1.05	18.8	1.09	23.6	13.3	35.7
COC(=O)C12CC(NC(=O)c3csc([C@@H](C[C@H](C(C)C)N(C)C(=O)[C@@H](NC(=O)[C@H]4CCCCN4C)C4CC4)OC(C)=O)n3)(C1)C2	0.0501	> 16.7	0.00745	> 16.7	0.112	> 16.7	4.69	> 16.7	0.0474	> 16.7	0.0114	> 16.7	0.123	> 16.7	0.0885	> 16.7
C1=C/COCc2cc(ccc2OCCN2CCCC2)Nc2nccc(n2)-c2ccc(o2)COC/1	2.59	18.8	1.63	5.57	1.11	9.11	2.9	8.62	3.07	14.7	2.36	11.7	0.699	11.8	1.61	5.24
O=C(/C=C/c1ccc(C(F)(F)F)cc1)Nc1ccc(C=C2c3ccccc3C(=O)c3ccccc32)cc1	15.4	> 100	4.65	65.1	4.18	> 100	2.86	30.9	5.69	60.7	4.57	> 100	19.4	> 100	3.32	> 100
O=c1c2cc(-c3ccccc3)sc2ncn1Cc1ccc(Cl)c(Cl)c1	18.6	> 100	18.9	54.9	0.845	> 100	19.5	59	15.5	38.6	> 100	> 100	22.7	75.6	17.3	44.2
CCn1c(-c2cc3c([nH]c4ccccc43)c(-c3cccc(O)c3)n2)n[nH]c1=S	3.96	31	2.38	6.77	3.37	16.1	3.15	42	3.18	15.1	4.15	18.9	3.02	10.1	3.11	13.2
[O-][N+]1(CC[N+]2([O-])CCCCC2)CCCCC1	–	> 100	–	> 100	–	> 100	–	> 100	–	> 100	–	> 100	–	> 100	–	> 100
NS(=O)(=O)c1ccc(N=Nc2c(O)[nH]c3ccc(C(=O)NCc4ccncc4)cc23)cc1	> 25	> 25	> 25	> 25	> 25	> 25	> 25	> 25	> 25	> 25	> 25	> 25	> 25	> 25	> 25	> 25
NC(=O)[C@@H](CC1CC1)[C@@H](CCC(F)(F)F)C(=O)N[C@H]1N=C(c2ccccc2)c2cccc(F)c2NC1=O	> 100	> 100	18.5	> 100	> 100	> 100	> 100	> 100	> 100	> 100	> 100	> 100	66	> 100	> 100	> 100
C=C/C(C)=C/C[C@]1(C)[C@H](C)[C@@H](OC(=O)CCC)[C@H](O)[C@@]23C(=C[C@H](OC)C[C@@H]12)[C@@H](OC(=O)CCC)O[C@H]3OC(C)=O	0.447	2.42	0.348	1.55	0.34	1.29	0.88	2.46	1.32	2.98	0.333	1.21	0.234	0.619	1.19	2.83
NS(=O)(=O)c1ccc(N2N=C3c4ccccc4CC3C2c2cccs2)cc1 (stereo unspecified)	15.3	40.1	18.9	> 100	34.7	> 100	17.1	43.4	19.4	39.6	35.4	> 100	19.8	36.3	20.3	48.7
Oc1c(Cl)cc(Cl)c2ccc(Cn3cc(-c4cc(C(F)(F)F)cc(C(F)(F)F)c4)nn3)nc12	2.79	9.94	0.823	5.91	1.58	3.55	22.1	71.6	4.52	16.8	0.473	1.81	1.25	2.5	3.05	9.88
CN1CCN(Cc2ccc(NC(=O)c3cncc(C#Cc4cnc(N)cc4C#N)c3)cc2C(F)(F)F)CC1	4.51	19	1.86	22.3	3.87	13.9	13.7	33.4	4.45	19.1	2.92	11.4	1.57	9.39	2.24	13.7
Cc1ccc2nc(-c3ccc(OCC(=O)N=Nc4c(O)[nH]c5ccccc45)cc3)[nH]c2c1	2.46	6.34	2.99	8.87	8.69	> 100	> 100	> 100	1.86	3.6	2.02	4.32	7.37	> 100	3.53	14.5
COc1cccc(CN(C)c2ccc(CO)c(Cl)c2)c1	20.7	> 96.5	33.1	> 100	24	> 100	19.1	67	3.32	> 64.1	4.34	> 100	42.1	> 100	18.6	> 100
CCN1CCN(c2cc(C)nc(N(CCCNc3ccnc4cc(Cl)ccc34)Cc3ccc4c(c3)OCO4)n2)CC1	3.19	14.4	2.84	> 100	2.24	8.42	3.22	58.5	2.13	4.73	2.81	12.5	3.16	10.6	7.4	> 100
CNNC(=N\S(=O)(=O)c1cc(C)c(Cl)cc1SCc1ccccc1)/N=C/c1ccc([N+](=O)[O-])s1	> 100	> 100	> 100	> 100	–	> 100	> 100	> 100	> 100	> 100	30.9	> 100	> 100	> 100	> 100	> 100
C=C1C(=O)O[C@H]2[C@H]1CC/C(COC(=O)NCc1ccc(OC)cc1)=C\CC[C@@]1(C)O[C@@H]21	1.23	9.27	0.843	2.31	0.57	1.87	2.69	21.6	2.65	16.2	0.635	1.55	0.58	1.49	1.45	7.96
COc1ccc(NC(=O)/C=C(C)/C=C/C=C(C)/C=C/C2=C(C)CCCC2(C)C)cc1	13	38.5	2.34	5.96	4.51	18.1	13.9	31.1	4.76	17.9	2.98	8.43	3.21	12.4	9.78	24.3
COC(=O)C(CCC(=O)CCl)N1C(=O)c2ccccc2C1=O (stereo unspecified)	–	19	–	6.94	–	15.8	–	29.7	–	28.9	–	15.6	–	13.9	–	22.8
COC(=O)c1cc2c(cc1Cl)SC1=NN(C)S(=O)N1S2(=O)=O (stereo unspecified)	> 100	> 100	> 100	> 100	> 100	> 100	> 100	> 100	> 100	> 100	> 100	> 100	> 100	> 100	> 100	> 100
